Test results from patent publication US6596712B2, “Treatment of carcinomas using squalamine in combination with other anti-cancer agents or modalities” (Genaera Corporation, priority 1996, dated 2003).

Columns and labels:
[1] = test system: rat 9L glioma; experiment: Glioma lethality study, rat glioma implanted into rat brain; format: in vivo; details: 20 mg/kg/day i.p. from three days after implantation
Excerpt: FIG. 10 illustrates survival test results using squalamine in a glioma lethality study with a rat 9L glioma introduced into the brains of healthy rats;
In view of these test results, applicants tested squalamine in an animal model for brain cancer. To test the effect of squalamine on tumors located in the brain, small sections (1 mm3) of existing rat gliomas were taken from rat flanks where they were being maintained and were implanted into the rat brains in two groups of rats. Thus, in this model, the tumors were viable when placed in the rat brain. Three days after implantation, and after some vasculature had developed, treatment with 20 mg/kg/day of squalamine (i.p.) was initiated in one group of rats. The control animals (“vehicle control” in FIG. 10) were given the carrier vehicle only (no squalamine), and the other animals were treated with squalamine (“Squalamine” in FIG. 10).

[2] = test system: VEGF-stimulated bovine retinal endothelial cells; experiment: Growth of VEGF-stimulated endothelial cells; format: cell-based; details: Bos taurus, Endothelial cell, 48 hours, VEGF 20 ng/ml
Method: In conducting this in vitro analysis, the following cell lines were tested: (a) bovine retinal endothelial cells; (b) 9L and C6 rat glioma cells; (c) human H80 glioma cells; and (d) VX2 rabbit carcinoma cells (the same type as the tumors implanted in the rabbit corneal micropocket assay test described above). The endothelial mitogen which was used in this analysis was VEGF at a concentration of 20 ng/ml.
The cells were allowed to attach overnight to tissue culture plates containing an optimized growth media. Following attachment, the cells were exposed to solvent only or 5 to increasing concentrations of squalamine (0, 10, 20, 30, 60, and 90 μg squalamine/ml). Cell growth was counted daily for three days using a Coulter Counter. A total of 10,000 cells per well were plated and each experimental concentration was tested in quadruplicate. The results were then averaged. The bovine retinal endothelial cells were grown and treated in an identical manner to the other cell lines, except that the growth of these cells was measured after the addition of 20 ng/ml of human recombinant VEGF to the cells prior to the squalamine treatment.
Percentage endothelial cell growth inhibition (%I) was determined by the following equation: [formula]

[3] = test system: Calu-6; experiment: Calu-6 lung tumor xenograft with carboplatin; format: in vivo, nude BALBc mice; details: carboplatin 60 mg/kg i.p. single dose, squalamine 20 mg/kg once daily for 5 days
Method: About 5×10^6 cells from each of two human lung tumor lines, H460 (a rapidly proliferating large cell carcinoma cell line, ATCC HTB-177) and Calu-6 (an anaplastic carcinoma, ATCC HTB-56), were inoculated subcutaneously in the right foreleg of nude BALBc mice. Once tumors were visible (3-5 days) with a mean volume of approximately 50-80 mm^3, mice were treated intraperitoneally with 60 mg/kg carboplatin (single dose) or 20 mg/kg/squalamine (once daily for 5 days) or a combination of carboplatin and squalamine. There were 8 mice per group. Tumor growth inhibition was scored by quantifying the size of tumors once control tumors reached a size of 1.0 gram and determining the ratio of mean treated tumor size to mean control tumor size (T/C). Tumor growth inhibition was then scored as 100% x [1-(T/C)]. A separate antitumor activity variable, tumor growth delay, was scored for the tumors by determining the length of time it required for the mean tumor size in a treatment group to reach a size of 500 mm^3 (B. A. Teicher et al., Anticancer Research 18, 2567-2574 (1998)). The tumor growth inhibition seen with carboplatin plus squalamine was greater than that seen with carboplatin or squalamine alone. The relative inactivity of squalamine as a single agent by this assay endpoint supports the idea that squalamine is synergistic with carboplatin in the inhibition of these two human lung tumor xenografts. Similarly, it was determined that squalamine enhanced the tumor growth delay caused by carboplatin by an enhancement factor of >2.3 (Table 7).

Question: What does the source list for `CC(C)[C@@H](CC[C@@H](C)[C@H]1CC[C@H]2[C@@H]3[C@H](O)C[C@H]4C[C@@H](NCCCNCCCCN)CC[C@]4(C)[C@H]3CC[C@]12C)OS(=O)(=O)O` [Squalamine, squalamine]?
Answer: increase in mean survival time [1]: 38%; mean survival time [1]: 24.9 days; inhibition at 10 µg/mL ([2]; 10 μg/ml): 38%; inhibition at 20 µg/mL ([2]; 20 μg/ml): 57%; inhibition at 30 µg/mL ([2]; 30 μg/ml): 83%; Tumor Growth Inhibition (T/C) [3]: 8%
